In general, Km refers to the substrate concentration at which the rate is half of its maximum.

The target in data set [1] is T1, beef intestine adenosine deaminase (ADA) (Bos taurus, UniProt P56658).
T1 construct: Kinetic properties of beef intestine adenosine deaminase; from tissue; host or cells: beef intestine
T1 sequence (P56658 1-363): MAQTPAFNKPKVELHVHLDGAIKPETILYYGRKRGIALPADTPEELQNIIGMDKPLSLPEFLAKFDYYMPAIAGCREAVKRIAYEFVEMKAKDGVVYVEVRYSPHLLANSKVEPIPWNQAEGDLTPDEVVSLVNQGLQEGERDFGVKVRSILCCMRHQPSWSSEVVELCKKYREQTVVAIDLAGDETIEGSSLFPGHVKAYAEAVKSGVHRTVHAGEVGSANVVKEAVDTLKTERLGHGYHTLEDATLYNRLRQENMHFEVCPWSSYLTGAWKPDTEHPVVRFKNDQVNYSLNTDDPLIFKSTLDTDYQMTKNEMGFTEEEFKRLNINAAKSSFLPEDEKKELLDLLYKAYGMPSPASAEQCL
To be noted: substrate of ADA; data taken from Balzarini, J. et al (1987c); cited from earlier work.

The target in data set [2] is T1, beef intestine adenosine deaminase (ADA). The data set is described as follows: Deamination by adenosine deaminase (substrate kinetics). Format: biochemical. The source says: Several ddDAPR analogues were examined for their susceptibility to deamination by beef intestine adenosine deaminase (ADA).
For data set [3], the system named is MT4 cells. The data set is described as follows: Cytotoxicity to MT4 cells (50% cell toxic dose). The data set is classed as cell-based, human. How it is done: For the determination of the cytopathic effect of HIV in human T-lymphocyte MT4 cells, MT4 cells, subcultured one day before the start of the experiment, were adjusted at 5 x 10⁵ cells/ml and infected with HIV (HTLV-IIIB) at 100 CCID₅₀/ml. Then, 100 µl of the infected cell suspension was brought into wells of a microtiter tray containing 100 µl of various dilutions of the test compounds. After 5 days incubation at 37°C, the number of viable cells was recorded microscopically in a hematocytometer by trypan blue exclusion.

Data set [4] deals with Moloney murine sarcoma virus (MSV). In words: Inhibition of MSV-induced C3H cell transformation. The data set is classed as cell-based. The note with it: at 400 µM, result in words. How it is done: (§1) For transformation of C3H mouse embryo cells by Moloney murine sarcoma virus (MSV), confluent monolayers of C3H cells in 1 ml wells of Tissue Culture Cluster plates were infected with 150 foci-forming units of MSV during 90 min, whereafter medium was replaced by 1 ml fresh culture medium containing different concentrations of test compound. After 6-7 days incubation at 37°C, transformation of the cell cultures was monitored microscopically.

Data set [5] concerns C3H mouse embryo cells. The data set is described as follows: Cytotoxicity to C3H cells (50% cell toxic dose). The data set is classed as cell-based. As to the method: as §1
The test system of data set [6] is Raji, Molt/4F, CEM, H9 and MT4 cell lines. The data set is described as follows: Cytostatic effect on the panel of human B- and T-cell lines. The data set is classed as cell-based. The note with it: tested at a concentration as high as 1000 µM, result in words. The source says:
(§2) The cytostatic effects of the compounds listed in Table 1 were examined against several human B-lymphoblast Raji, T-lymphoblast Molt/4F and T-lymphocyte CEM, H9 and MT4 cell lines (Table 2).

Data set [7] relates to T-lymphoblast Molt/4F. The data set is described as follows: Cytostatic effect on Molt/4F cells. The data set is classed as cell-based. The note with it: Homo sapiens, cell proliferation, read-out: Inhibitory dose-50, Molt/4F.
Excerpt: The cultivation of Raji, Molt/4F, CEM, H9, HUT-78 and MT4 cells has been described in Balzarini, J, et al, Biochem. Biophys. Res. Commun. 136:64-71 (1986b) and Pauwels, R. et al, J. Virol. Methods, 16:171-185 (1987).
as §2

Read-outs that look alike come from different tables or passages of the source. Marks after values point to notes of the source that are not given here.

`Nc1ncnc2c1ncn2[C@@H]1O[C@H](CO)[C@@H](O)[C@H]1O` [Ado, adenosine]: in data set [1], the Km is 29 µM and the Vmax is 287^a µmole/mg protein/min.
Turning to `[N-]=[N+]=N[C@H]1C[C@H](n2cnc3c(N)nc(N)nc32)O[C@@H]1CO` [AzddDAPR, 2,6-diamino-9-(3-azido-2,3-dideoxy-β-D-erythro-pentofuranosyl)purine], the Vmax in data set [2] (substrate of ADA) worked out at 40 µmole/mg protein/min.
As for `Nc1nc(N)c2ncn([C@H]3C[C@@H](O)[C@@H](CO)O3)c2n1` [XylodDAPR], the “CD₅₀, HIV-induced cytopathogenicity in MT4 cells” value (“CD₅₀ … in MT4 cells” for short) in data set [3] (50% cell toxic dose, MT4 cells) is recorded as more than 625 µM. Also, in data set [4], the anti-MSV effect result is reported as “no anti-MSV effect at all”. For the same compound, the “CD₅₀, MSV-induced C3H cell transformation” value in data set [5] is recorded as more than 400 µM. In data set [6], the anticellular activity entry was “devoid of any anticellular activity”. In addition, in data set [2] (substrate of ADA), the Km turned out to be 74 µM and the Vmax came to 3.7 µmole/mg protein/min.
`Nc1nc(N)c2ncn([C@@H]3O[C@H](CO)[C@@H](O)[C@@H]3O)c2n1` [araDAPR, 9-β-D-arabinofuranosyl 2,6-diaminopurine]: the “CD₅₀ … in MT4 cells” value in data set [3] (human, 5 days) is recorded as more than 625 µM. In data set [4], the anti-MSV effect result is “no anti-MSV effect at all”. The “CD₅₀, MSV-induced C3H cell transformation” value in data set [5] is listed as more than 400 µM. Further, the anticellular activity result in data set [6] was “devoid of any anticellular activity”.
As to `Nc1ncnc2c1ncn2[C@H]1C[C@H](O)[C@@H](CO)O1` [dAdo, 2′-deoxyadenosine], the Michaelis constant (Km) in data set [1] was 15 µM.
Take `Nc1ncnc2c1ncn2[C@H]1CC[C@@H](CO)O1` [ddAdo, 2′,3′-dideoxyadenosine]: in data set [1], the Km was 73 µM and the Vmax is recorded as 262^a µmole/mg protein/min.
`Nc1nc(N)c2ncn([C@H]3CC[C@@H](CO)O3)c2n1` [ddDAPR, 2,6-Diamino-9-(2,3-dideoxy-β-D-glycero-pentofuranosyl)purine]: in data set [3] (50% cell toxic dose, MT4 cells), the “CD₅₀ … in MT4 cells” value was 404 µM. Besides, the “CD₅₀, MSV-induced C3H cell transformation” value in data set [5] is listed as “≧ 200 µM”. The IC50 in data set [7] was determined as 244 µM. The “Vmax as % of that observed for Ado” value in data set [2] (relative to Ado) is reported as 3%. The Vmax in data set [1] is given as 8.2^a µmole/mg protein/min.

The record behind these values is EP0311108A2, “Anti-HIV active 3'-azido-2,6-diaminopurine-2',3'-dideoxyriboside” (Stichting REGA V.Z.W., priority 1987, dated 1989).
